Molecular target: T1, Acyl-CoA : cholesterol acyltransferase (ACAT) (Rattus norvegicus, UniProt Q7TQM4)
T1 construct: from the mucosal microsome fraction of the small intestine; from tissue; host or cells: small intestine mucosa (microsome fraction), Sprague-Dawley rat
T1 sequence (Q7TQM4 1-524): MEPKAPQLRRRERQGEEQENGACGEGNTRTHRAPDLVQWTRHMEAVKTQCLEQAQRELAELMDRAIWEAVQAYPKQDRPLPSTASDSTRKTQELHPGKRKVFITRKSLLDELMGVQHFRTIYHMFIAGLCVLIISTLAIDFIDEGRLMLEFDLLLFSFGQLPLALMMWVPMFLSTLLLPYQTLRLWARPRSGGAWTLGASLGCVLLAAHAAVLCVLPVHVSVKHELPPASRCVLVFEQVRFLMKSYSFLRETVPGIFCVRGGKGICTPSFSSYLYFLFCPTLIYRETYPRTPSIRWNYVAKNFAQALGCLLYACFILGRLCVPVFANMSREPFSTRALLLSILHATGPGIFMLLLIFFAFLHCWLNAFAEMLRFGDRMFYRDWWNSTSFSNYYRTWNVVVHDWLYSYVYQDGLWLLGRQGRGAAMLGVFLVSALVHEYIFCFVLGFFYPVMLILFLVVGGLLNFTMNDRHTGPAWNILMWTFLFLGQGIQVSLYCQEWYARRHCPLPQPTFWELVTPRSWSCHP
Experiment: Acyl-CoA : cholesterol acyltransferase (ACAT) inhibitory activity
Format: biochemical
Conditions: mucosal microsome fraction of small intestine of male 6-week old fasted Sprague-Dawley rats, labeled cholesterol ester from [1^14 C] oleoyl-CoA; for inhibition at 1 µM: 10^-6 M, read-out: ACAT Inhibition Rate (%) 10^-6 M; for inhibition at 0.01 µM: 10^-8 M, read-out: ACAT Inhibition Rate (%) 10^-8 M
Procedure: The enzyme ACAT was prepared by the method of Heider et al. described in Journal of Lipid Research, Vol. 24, page 1127 (1982), from the mucosal microsome fraction of the small intestine of male, 6-week old Sprague-Dawley rats which had been fasted for 20 hours.
ACAT activity was calculated by the method of Helgerud et al. described in Journal of Lipid Research, Vol. 22, page 271 (1981), namely, by measuring the amount of the labeled cholesterol ester produced from [1^14 C] oleoyl-CoA and endogenous cholesterol.
Inhibition rates (%) of the production of the labeled cholesterol ester wherein 10^-6 M or 10^-8 M of test compounds were added are shown as an index of ACAT inhibitory activity in Table 1.

## Cc1ccccc1-c1c(NC(=O)Nc2ccc(F)cc2F)c(=O)oc2ccc(Cl)cc12 [Example 1, N-[6-chloro-4-(2-methylphenyl)-2-oxo-2H-1-benzopyran-3-yl]-N'-(2,4-difluorophenyl) urea]
  inhibition at 1 µM: 99%

## Cc1ccccc1-c1c(NC(=O)Nc2ccc(F)cc2F)c(=O)oc2ccc(C(C)C)cc12 [Example 2, N-(2,4-difluorophenyl)-N'-[6-isopropyl-4-(2-methylphenyl)-2-oxo-2H-1-benzopyran-3-yl] urea]
  inhibition at 1 µM: 99%

## Cc1cc2oc(=O)c(NC(=O)Nc3ccc(F)cc3F)c(-c3ccccc3C)c2cc1C [Example 3, N-(2,4-difluorophenyl)-N'-[4-(2-methylphenyl)-6,7-dimethyl-2-oxo-2H-1-benzopyran-3-yl] urea]
  inhibition at 1 µM: 99.2%

## Cc1cc2oc(=O)c(NC(=O)Nc3ccc(Cl)cc3)c(-c3ccccc3C)c2cc1C [Example 4, N-(4-chlorophenyl)-N'-[6,7-dimethyl-4-(2-methylphenyl)-2-oxo-2-H-1-benzopyran-3-yl] urea]
  inhibition at 0.01 µM: 69.7%

## CCc1ccc2oc(=O)c(NC(=O)Nc3ccc(F)cc3F)c(-c3ccccc3C)c2c1 [Example 6, N-[6-ethyl-4-(2-methylphenyl)-2-oxo-2H-1-benzopyran-3-yl]-N'-(2,4-difluorophenyl) urea]
  inhibition at 0.01 µM: 45.9%

## Cc1cc2oc(=O)c(NC(=O)Nc3ccc(F)cc3F)c(-c3ccccc3C)c2cc1Cl [Example 7, N-[6-chloro-7-methyl-4-(2-methylphenyl)-2-oxo-2H-1-benzopyran-3-yl)-N'-(2,4-difuorophenyl) urea]
  inhibition at 0.01 µM: 81.7%

## Cc1cc2oc(=O)c(NC(=O)Nc3ccc(F)cc3F)c(-c3ccccc3Cl)c2cc1C [Example 11]
  inhibition at 0.01 µM: 86.7%

## Cc1ccc2oc(=O)c(NC(=O)Nc3ccc(F)cc3F)c(-c3ccccc3C)c2c1 [Example 16, N-[2,4-difluorophenyl)-N'-[6-methyl-4-(2-methylphenyl)-2-oxo-2H-1-benzopyran-3-yl) urea]
  inhibition at 0.01 µM: 42.7%

## Cc1cc2c(-c3ccccc3C)c(NC(=O)Nc3ccc(F)cc3F)c(=O)oc2cc1Cl [Example 17, N-[7-chloro-6-methyl-4-(2-methylphenyl)-3-oxo-2H-1-benzopyran-3-yl)-N'-(2,4-difluorophenyl) urea]
  inhibition at 0.01 µM: 84.2%

## Cc1ccc2oc(=O)c(NC(=O)Nc3ccc(F)cc3F)c(-c3ccccc3Cl)c2c1 [Example 18, N-[4-(2-chlorophenyl)-6-methyl-2-oxo-2H-1-benzopyran-3-yl)-N'-(2,4-difluorophenyl) urea]
  inhibition at 0.01 µM: 56.1%

## COc1cc(C=CC(=O)Nc2c(-c3ccccc3C)c3cc(Cl)c(C)cc3oc2=O)cc(OC)c1OC(C)=O [Example 19, 3-(4-acetoxy-3,5-dimethoxycinnamoylamino)-6-chloro-7-methyl-4-(2-methylphenyl)-2H-1-benzopyran-2-one]
  inhibition at 1 µM: 92.3%

## Cc1cc2oc(=O)c(NC(=O)Nc3cccc(C(F)(F)F)c3)c(-c3ccccc3C)c2cc1Cl [Example 20, N-[6-chloro-7-methyl-4-(2-methylphenyl)-2-oxo-2H-1-benzopyran-3-yl]-N'-(3-trifluoromethylphenyl) urea]
  inhibition at 1 µM: 84.8%

## Cc1cc2sc(=O)c(NC(=O)Nc3ccc(F)cc3F)c(-c3ccccc3C)c2cc1Cl [Example 22, N-[6-chloro-7-methyl-4-(2-methylphenyl)-2-oxo-2H-1-thiobenzopyran-3-y-1)-N'-(2,4-difluorophenyl) urea]
  inhibition at 1 µM: 97%

## COc1cc(NC(=O)Nc2c(-c3ccccc3Cl)c3cc(C)ccc3oc2=O)cc(OC)c1OC(C)=O [Example 24, N-(4-acetoxy-3,5-dimethoxyphenyl)-N'-[4-(2-chlorophenyl)-6-methyl-2-oxo-2H-1-benzopyran-3-yl] urea]
  inhibition at 1 µM: 98.6%

## COc1cc(NC(=O)Nc2c(-c3ccccc3C)c3cc(C)c(C)cc3oc2=O)cc(OC)c1OC(C)=O [Example 25, N-(4-acetoxy-3,5-dimethoxyphenyl)-N'-[6,7-dimethyl-4-(2-methylphenyl)-2-oxo-2H-1-benzopyran-3-yl]urea]
  inhibition at 1 µM: 98.8%

## COc1cc(NC(=O)Nc2c(-c3ccccc3C)c3cc(Cl)c(C)cc3oc2=O)cc(OC)c1OC(C)=O [Example 26, N-(4-acetoxy-3,5-dimethoxyphenyl)-N,-[6-chloro-7-methyl-4-(2-methylphenyl)-2-oxo-2H-1-benzopyran-3-yl]urea]
  inhibition at 1 µM: 98.5%

## CC(=O)Oc1c(C)cc(NC(=O)Nc2c(-c3ccccc3C)c3cc(Cl)c(C)cc3oc2=O)cc1C [Example 27, N-(4-acetoxy-3,5-dimethylphenyl)-N'-[6-chloro-7-methyl-4-(2-methylphenyl)-2-oxo-2H-1-benzopyran-3-yl]urea]
  inhibition at 1 µM: 99.1%

## Cc1cc2oc(=O)c(NC(=O)Cc3ccc(F)cc3F)c(-c3ccccc3C)c2cc1Cl [Example 28, 6-chloro-3-(2,4-difluorophenylacetylamino)-7-methyl-4-(2-methylphenyl)-2H-1-benzopyran-2-one]
  inhibition at 0.01 µM: 34.3%

## Cc1cc2oc(=O)c(NC(=O)c3ccc(F)cc3F)c(-c3ccccc3C)c2cc1Cl [Example 29, 6-chloro-3-(2,4-difluorobenzoylamino)-7-methyl-4-(2-methylphenyl)-2H-1-benzopyran-2-one]
  inhibition at 1 µM: 95.4%

## CC(C)c1ccc2oc(=O)c(NC(=O)Nc3ccc(F)cc3F)c(-c3ccc(F)cc3)c2c1 [Example 30, N-(2,4-difluorophenyl)-N'-[4-(4-fluorophenyl)-6-isopropyl-2-oxo-2H-1-benzopyran-3-yl] urea]
  inhibition at 1 µM: 90.2%

Source: US5278186A, “Chromene derivatives, their production and use” (Takeda Chemical Industries, Ltd., priority 1990, dated 1994)
